According to patent US20200071310A1, “N-ARYL PYRAZOLES AS NRF2 REGULATORS” (GLAXOSMITHKLINE INTELLECTUAL PROPERTY DEVELOPMENT LIMITED, priority 2016, published 2020):

Legend:
[1] = system: NQO1 specific enzyme activity in BEAS-2B cells; assay: BEAS-2B NQO1 MTT Assay; type: cell-based; details: Homo sapiens; NQO1 specific activity induction, BEAS-2B cells, 48 hours; read-out: EC50
Source text: NAD(P)H:quinone oxidoreductase 1 (NQO1), also called DT diaphorase, is a homodimeric FAD-containing enzyme that catalyzes obligatory NAD(P)H-dependent two-electron reductions of quinones and protects cells against the toxic and neoplastic effects of free radicals and reactive oxygen species arising from one-electron reductions. The transcription of NQO1 is finely regulated by NRF2, and thus NQO1 activity is a good marker for NRF2 activation. On day one, frozen BEAS-2B cells (ATCC) were thawed in a water bath, counted, and re-suspended at a concentration of 250,000 cells/mL. Fifty microliters of cells were plated in 384 well black clear-bottomed plates. Plates were incubated at 37° C., 5% CO2 overnight. On day two, plates were centrifuged and 50 nL of compound or controls were added to the cells. Plates were then incubated at 37° C., 5% CO2 for 48 hours. On day four, medium was aspirated from the plate and crude cell lysates were made by adding 13 uL of 1× Cell Signaling Technologies lysis buffer with 1 Complete, Mini, EDTA-free Protease Inhibitor Tablet (Roche) for each 10 mL of lysis buffer. After lysis plates were incubated for 20 minutes at room temperature. Two microliters of lysate were removed for use in Cell Titer Glo assay (Promega) and MTT cocktail was prepared (Prochaska et. al. 1998) for measurement of NQO1 activity. Fifty microliters of MTT cocktail is added to each well, plate is centrifuged, and analyzed on an Envision plate reader (Perkin Elmer) using Absorbance 570 nm label for 30 minutes. Product formation was measured kinetically and the pEC50 of NQO1 specific activity induction was calculated by plotting the change in absorbance (Delta OD/min) versus the log of compound concentration followed by 3-parameter fitting. pEC50 is the negative log of the EC50.

[2] = molecular target: T1, full length Keap1 protein / full length NRF2 protein (Homo sapiens, UniProt Q14145); assay: NRF2-Keap1 TR-FRET Low Protein Assay; type: binding
T1 construct: full length NRF2 protein and full length Keap1 protein (Keap1 exists a dimer) are used; His
T1 sequence (Q14145 whole entry): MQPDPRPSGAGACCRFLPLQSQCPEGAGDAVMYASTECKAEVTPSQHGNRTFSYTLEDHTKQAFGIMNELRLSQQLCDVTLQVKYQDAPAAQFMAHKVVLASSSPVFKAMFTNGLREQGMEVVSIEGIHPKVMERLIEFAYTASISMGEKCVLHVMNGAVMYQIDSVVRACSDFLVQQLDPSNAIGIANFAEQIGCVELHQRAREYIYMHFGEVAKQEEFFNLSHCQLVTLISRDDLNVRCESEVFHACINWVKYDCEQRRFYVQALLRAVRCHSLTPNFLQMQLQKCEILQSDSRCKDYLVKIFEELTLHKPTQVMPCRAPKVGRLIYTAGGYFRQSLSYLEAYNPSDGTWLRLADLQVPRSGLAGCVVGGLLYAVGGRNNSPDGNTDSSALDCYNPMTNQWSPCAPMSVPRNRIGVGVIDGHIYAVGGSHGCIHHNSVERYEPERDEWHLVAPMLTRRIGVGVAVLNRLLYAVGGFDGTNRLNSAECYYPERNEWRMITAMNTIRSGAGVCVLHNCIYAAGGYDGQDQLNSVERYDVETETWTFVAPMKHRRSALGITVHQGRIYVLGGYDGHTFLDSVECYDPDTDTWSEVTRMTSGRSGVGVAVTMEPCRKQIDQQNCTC
Source text: In the NRF2-Keap1 TR-FRET (time-resolved fluorescence resonance energy transfer) low protein assay, full length NRF2 protein and full length Keap1 protein (Keap1 exists a dimer) are used. The assay detects a compound's ability to displace the binding of Keap1 FlagHis with biotinylated Avi-NRF2 protein. Biotin-NRF2 binds to streptavidin-europium (a component of the detection mix) and Keap1 FlagHis is recognized by anti-Flag APC (allophycocyanin) antibody (also a component of the detection mix). If binding occurs between the two proteins, there will be an energy transfer from the Eu+3 (donor) at 615 nm to the APC (acceptor) at 665 nm. A potential NRF2 inhibitor will cause a reduction in the TR-FRET signal by interfering with the binding of Keap1 to NRF2.
Ten nanoliters of 100× compound dose response curves (serial 3-fold dilutions) in DMSO were stamped using an Echo liquid handling system (Labcyte) into 384-well, low volume, black assay plates (Greiner, #784076), with DMSO in columns 6 and 18. An additional 90 nl DMSO was added to each well, to bring the total volume to 100 nl per well. The top concentration of compound was located in columns 1 and 13, with the serial dilutions going across the row. All reagents were diluted in assay buffer (50 mM Tris, pH 8.0, 5 mM MgCl2, 100 mM NaCl, 0.005% BSA, 1 mM DTT, and 2 mM CHAPS. The BSA, DTT, and CHAPS were added to the assay buffer on the day of assay. Using a Multidrop Combi (Thermo Electron Corporation) equipped with a metal tip dispenser, 5 ul of 1.25 nM Keap1 FlagHis protein was added to all wells of the compound plate, with the exception of the wells in column 18. Wells in column 18 received 5 ul of assay buffer instead. Plates were centrifuged at 500 rpm for 1 minute, covered with a plate lid, and incubated at 37° C. for 2.25 hours. Plates were then removed from the incubator and allowed to cool to RT for 15 minutes. Five microliters of 2.5 nM biotin-NRF2 protein was then added to all wells of the plates and the plates were spun at 500 rpm for 1 minute, followed by incubating at 4° C. for 1.25 hours. The plates were then allowed to warm to RT for 15 minutes, followed by the addition of 10 ul of detection mix (1 nM Streptavidin Eu+W1024 and 5 ug/ml mouse anti-DYKDDDDK IgG conjugated to SureLight APC antibody; both from Columbia Biosciences) to all wells. Plates were spun at 500 rpm for 1 minute, incubated for 1 hour at RT, and read on an Envision plate reader using a 320 nm excitation filter and 615 nm and 665 nm emission filters. Compound response (% inhibition) and potency (pIC50) were calculated based on the ratio of the two emissions (665 nm/615 nm) and then the transformed data was normalized against controls in the assay (control 1=1% DMSO in the presence of NRF2 and Keap1 protein and control 2=1% DMSO in the presence of only the NRF2 protein). Data analysis was handled using the software package Abase XE (Surrey, United Kingdom). The % inhibition values were calculated from the ratio (transformed) data by the equation:
100−(100*(compound response−average control 2)/(average control 1−average control2)).
For calculation of pIC50s, Abase XE used a four parameter equation.
IC50s<10 nM (+++++), IC50s 10-100 nM (++++), IC50s 100 nM-1 uM (+++), IC50s 1-10 uM (++). and IC50s 10 uM-100 uM (+), IC50s>100 uM (−), or were not determined (ND).

Structure (SMILES) | EC50 [2] [µM] | EC50 [1] [µM]
CN(Cc1cccc(-n2ncc(C(=O)O)c2[C@@H]2C[C@H]2c2cn(C)nn2)c1)S(=O)(=O)c1ccccc1OC(F)(F)F (racemic) [Example 46, 5-((trans)-2-(1-methyl-1H-1,2,3-triazol-4-yl)cyclopropyl)-1-(3-((N-methyl-2-(trifluoromethoxy)phenylsulfonamido)methyl)phenyl)-1H-pyrazole-4-carboxylic acid] | 1 to 10 | 1 to 10
COc1ccccc1S(=O)(=O)N(C)Cc1cccc(-n2ncc(C(=O)O)c2[C@@H]2C[C@H]2c2cn(C)nn2)c1 (racemic) [Example 47, 1-(3-((2-methoxy-N-methylphenylsulfonamido)methyl)phenyl)-5-((trans)-2-(1-methyl-1H-1,2,3-triazol-4-yl)cyclopropyl)-1H-pyrazole-4-carboxylic acid] | 1 to 10 | 0.01 to 0.1
CN(Cc1cccc(-n2ncc(C(=O)O)c2[C@@H]2C[C@H]2c2cn(C)nn2)c1)S(=O)(=O)c1ccccc1 (racemic) [Example 48, 5-((trans)-2-(1-methyl-1H-1,2,3-triazol-4-yl)cyclopropyl)-1-(3-((N-methylphenylsulfonamido)methyl)phenyl)-1H-pyrazole-4-carboxylic acid] | 1 to 10 | 1 to 10
CCCCCCN(Cc1cccc(-n2ncc(C(=O)O)c2[C@@H]2C[C@H]2c2cn(C)nn2)c1)S(=O)(=O)c1ccccc1Oc1ccccc1 (racemic) [Example 49, 1-(3-((N-hexyl-2-phenoxyphenylsulfonamido)methyl)phenyl)-5-((trans)-2-(1-methyl-1H-1,2,3-triazol-4-yl)cyclopropyl)-1H-pyrazole-4-carboxylic acid] | 1 to 10 | 0.1 to 1
CCCN(Cc1cccc(-n2ncc(C(=O)O)c2[C@@H]2C[C@H]2c2cn(C)nn2)c1)S(=O)(=O)c1ccccc1C (racemic) [Example 50, 5-((trans)-2-(1-methyl-1H-1,2,3-triazol-4-yl)cyclopropyl)-1-(3-((2-methyl-N-propylphenylsulfonamido)methyl)phenyl)-1H-pyrazole-4-carboxylic acid] | 1 to 10 | 0.01 to 0.1
CN(Cc1cccc(-n2ncc(C(=O)O)c2[C@@H]2C[C@H]2c2cn(C)nn2)c1)S(=O)(=O)c1cccc2cccnc12 (racemic) [Example 51, 5-((trans)-2-(1-methyl-1H-1,2,3-triazol-4-yl)cyclopropyl)-1-(3-((N-methylquinoline-8-sulfonamido)methyl)phenyl)-1H-pyrazole-4-carboxylic acid] | 1 to 10 | 0.1 to 1
COc1ccccc1S(=O)(=O)NCc1cccc(-n2ncc(C(=O)O)c2[C@@H]2C[C@H]2c2cn(C)nn2)c1 (racemic) [Example 52, 1-(3-((2-methoxyphenylsulfonamido)methyl)phenyl)-5-((trans)-2-(1-methyl-1H-1,2,3-triazol-4-yl)cyclopropyl)-1H-pyrazole-4-carboxylic acid] | 1 to 10 | 0.1 to 1

More lines, main results first:

EC50 [2] [µM] | Structure (SMILES) | EC50 [1] [µM]
0.1 to 1 | CN(Cc1cccc(-n2ncc(C(=O)O)c2[C@@H]2C[C@H]2c2cn(C)nn2)c1)S(=O)(=O)c1cccc(Oc2ccccc2)c1 (racemic) [Example 35, 5-((trans)-2-(1-methyl-1H-1,2,3-triazol-4-yl)cyclo-propyl)-1-(3-((N-methyl-3-phenoxy-phenyl-sulfonamido)-methyl)phenyl)-1H-pyrazole-4-carboxylic acid] | 1 to 10
0.1 to 1 | CCCCCCN(Cc1cccc(-n2ncc(C(=O)O)c2[C@@H]2C[C@H]2c2cn(C)nn2)c1)S(=O)(=O)c1ccccc1C (racemic) [Example 37, 1-(3-((N-hexyl-2-methylphenylsulfonamido)methyl)phenyl)-5-((trans)-2-(1-methyl-1H-1,2,3-triazol-4-yl)cyclo-propyl)-1H-pyrazole-4-carboxylic acid] | 0.01 to 0.1
1 to 10 | COc1ccc(Cl)cc1S(=O)(=O)N(C)Cc1cccc(-n2ncc(C(=O)O)c2[C@@H]2C[C@H]2c2cn(C)nn2)c1 (racemic) [Example 40, 1-(3-((5-chloro-2-methoxy-N-methylphenyl-sulfonamido)-methyl)phenyl)-5-((trans)-2-(1-methyl-1H-1,2,3-triazol-4-yl)cyclo-propyl)-1H-pyrazole-4-carboxylic acid] | 1 to 10
1 to 10 | CN(Cc1cccc(-n2ncc(C(=O)O)c2[C@@H]2C[C@H]2c2cn(C)nn2)c1)S(=O)(=O)c1c(Cl)cccc1C(F)(F)F (racemic) [Example 41, 1-(3-((2-chloro-N-methyl-6-(trifluoro-methyl)phenyl-sulfonamido)-methyl)phenyl)-5-((trans)-2-(1-methyl-1H-1,2,3-triazol-4-yl)cyclo-propyl)-1H-pyrazole-4-carboxylic acid] | 1 to 10
1 to 10 | Cc1ccccc1S(=O)(=O)N(C)Cc1cccc(-n2ncc(C(=O)O)c2[C@@H]2C[C@H]2c2cn(C)nn2)c1 (racemic) [Example 42, 1-(3-((N,2-dimethylphenylsulfonamido)methyl)phenyl)-5-((trans)-2-(1-methyl-1H-1,2,3-triazol-4-yl)cyclopropyl)-1H-pyrazole-4-carboxylic acid] | 1 to 10
1 to 10 | COc1ccc(Br)cc1S(=O)(=O)N(C)Cc1cccc(-n2ncc(C(=O)O)c2[C@@H]2C[C@H]2c2cn(C)nn2)c1 (racemic) [Example 43, 1-(3-((5-bromo-2-methoxy-N-methylphenylsulfonamido)methyl)phenyl)-5-((trans)-2-(1-methyl-1H-1,2,3-triazol-4-yl)cyclopropyl)-1H-pyrazole-4-carboxylic acid] | 1 to 10
1 to 10 | COc1cc([N+](=O)[O-])ccc1S(=O)(=O)N(C)Cc1cccc(-n2ncc(C(=O)O)c2[C@@H]2C[C@H]2c2cn(C)nn2)c1 (racemic) [Example 44, 1-(3-((2-methoxy-N-methyl-4-nitrophenylsulfonamido)methyl)phenyl)-5-((trans)-2-(1-methyl-1H-1,2,3-triazol-4-yl)cyclopropyl)-1H-pyrazole-4-carboxylic acid] | 1 to 10
1 to 10 | CCOc1ccccc1S(=O)(=O)N(C)Cc1cccc(-n2ncc(C(=O)O)c2[C@@H]2C[C@H]2c2cn(C)nn2)c1 (racemic) [Example 45, 1-(3-((2-ethoxy-N-methylphenylsulfonamido)methyl)phenyl)-5-((trans)-2-(1-methyl-1H-1,2,3-triazol-4-yl)cyclopropyl)-1H-pyrazole-4-carboxylic acid] | 1 to 10
